Values quoted from earlier work, collected in patent US20160338997A1, “KELOID REDUCTION USING TOPICAL ALLANTOIN” (Scioderm, Inc., priority 2013, published 2016).

Conditions: emulsion pH 6.8 to 7.5; with time and in accelerated stability tests at 40° C

degradation of allantoin: degrades significantly
Compound: NC(=O)NC1NC(=O)NC1=O (stereo not shown) [allantoin]
